Key:
[1] = T release rate comparison in saline incubation media; type: physicochemical; conditions: 2, 4 and 6 hours
Experimental: In order to compare the release rate results of hydrogel encapsulated T to pelleted T, larger gels had to be prepared as the T pellets which the hydrogels are intended to replace are 25 mg, where the E2 pellets are merely 6 mg. Thus, approximately 83 mg of hydrogel at 30% T loading and 1% HA were prepared. In order to achieve even or consistent crosslinking in these much larger hydrogel samples, Likarda's patented micromolds (shown in FIG. 21) were employed. After formation, the encapsulated T was removed from the molds and placed in tubes to be rotated for an hour. The encapsulated T hydrogels were then removed from the tubes and stored in Dulbecco's PBS buffer. The large hydrogel blocks encapsulating T were then tested and compared to 25 mg T pellets and micronized T powder.
The T powder was produced as a 2.5 mg/mL slurry in buffer to reach the near saturation point of T in the buffer. Samples of the T powder slurry were removed from only the top layer of the slurry fluid to avoid aspirating T particles in the slurry that may have precipitated at to the bottom. T pellets were collected directly from the vials in which they were stored. The 83 mg hydrogels containing 30% T were collected from Dulbecco's PBS buffer, rinsed, and dried. Each of the collected samples was then placed in a separate container of incubation media (saline in this instance) for the release studies. […]

[2] = cited from earlier work

Row | SMILES | T release level / approximate saturation level of T in saline [1] | solubility in water compared to E2 [2]
1 | C[C@]12CC[C@H]3[C@@H](CCC4=CC(=O)CC[C@@]43C)[C@@H]1CC[C@@H]2O [T powder, Testosterone] | about 1.5 mg/L | –
2 | C[C@]12CC[C@H]3[C@@H](CCC4=CC(=O)CC[C@@]43C)[C@@H]1CC[C@@H]2O [Testosterone (T), Testosterone] | – | much higher solubility factor in water compared to E2

Reference: US20250319021A1, “COMPOSITION OF HYDROGEL LOADED WITH HORMONE” (VITALTE LIFESCIENCES INC., priority 2024, published 2025)
